{
  "source": "paper PMC3463757",
  "about": "(2012)",
  "key": {"ROCK1": {"target": "ROCK1 (Homo sapiens, UniProt Q13464)", "sequence (Q13464 2-1354)": "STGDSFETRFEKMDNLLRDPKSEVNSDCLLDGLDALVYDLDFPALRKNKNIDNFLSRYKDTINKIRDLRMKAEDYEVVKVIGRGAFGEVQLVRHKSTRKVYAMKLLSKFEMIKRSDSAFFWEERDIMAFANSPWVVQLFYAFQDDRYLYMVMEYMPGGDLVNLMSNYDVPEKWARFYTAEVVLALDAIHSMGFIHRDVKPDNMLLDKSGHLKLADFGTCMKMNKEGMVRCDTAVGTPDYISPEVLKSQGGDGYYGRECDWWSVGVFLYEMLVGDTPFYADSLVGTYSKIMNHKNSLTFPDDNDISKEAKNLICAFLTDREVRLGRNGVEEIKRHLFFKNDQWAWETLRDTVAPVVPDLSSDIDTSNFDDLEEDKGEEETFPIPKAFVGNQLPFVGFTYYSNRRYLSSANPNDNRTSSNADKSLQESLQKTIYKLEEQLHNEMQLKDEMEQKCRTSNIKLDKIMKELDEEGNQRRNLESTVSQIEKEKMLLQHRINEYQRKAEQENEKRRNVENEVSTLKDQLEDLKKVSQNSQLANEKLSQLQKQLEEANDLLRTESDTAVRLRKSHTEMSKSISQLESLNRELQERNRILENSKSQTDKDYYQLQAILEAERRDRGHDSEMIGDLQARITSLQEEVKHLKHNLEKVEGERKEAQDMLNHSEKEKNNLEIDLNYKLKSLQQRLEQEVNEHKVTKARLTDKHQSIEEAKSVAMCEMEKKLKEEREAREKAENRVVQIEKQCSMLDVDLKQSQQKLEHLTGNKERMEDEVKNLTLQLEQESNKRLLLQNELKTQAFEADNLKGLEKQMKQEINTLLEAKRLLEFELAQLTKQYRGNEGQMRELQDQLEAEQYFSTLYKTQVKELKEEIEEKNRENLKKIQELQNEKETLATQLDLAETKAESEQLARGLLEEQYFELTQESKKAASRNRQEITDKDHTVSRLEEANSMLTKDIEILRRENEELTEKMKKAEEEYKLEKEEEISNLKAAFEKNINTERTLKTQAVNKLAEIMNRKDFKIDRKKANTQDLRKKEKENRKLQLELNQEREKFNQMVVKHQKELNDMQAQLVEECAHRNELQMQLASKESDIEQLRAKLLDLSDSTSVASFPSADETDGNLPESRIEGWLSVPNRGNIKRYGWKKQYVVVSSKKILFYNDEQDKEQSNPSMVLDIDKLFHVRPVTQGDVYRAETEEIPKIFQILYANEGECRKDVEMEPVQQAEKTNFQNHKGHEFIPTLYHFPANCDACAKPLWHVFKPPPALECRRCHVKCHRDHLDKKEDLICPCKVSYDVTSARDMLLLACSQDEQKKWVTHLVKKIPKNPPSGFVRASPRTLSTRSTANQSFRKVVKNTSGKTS", "assay": "Invitrogen Z-Lyte FRET kinase assay, […] peptide substrate", "assay_type": "biochemical"}, "ROCK2": {"target": "ROCK2 (Homo sapiens, UniProt O75116)", "sequence (O75116 whole entry)": "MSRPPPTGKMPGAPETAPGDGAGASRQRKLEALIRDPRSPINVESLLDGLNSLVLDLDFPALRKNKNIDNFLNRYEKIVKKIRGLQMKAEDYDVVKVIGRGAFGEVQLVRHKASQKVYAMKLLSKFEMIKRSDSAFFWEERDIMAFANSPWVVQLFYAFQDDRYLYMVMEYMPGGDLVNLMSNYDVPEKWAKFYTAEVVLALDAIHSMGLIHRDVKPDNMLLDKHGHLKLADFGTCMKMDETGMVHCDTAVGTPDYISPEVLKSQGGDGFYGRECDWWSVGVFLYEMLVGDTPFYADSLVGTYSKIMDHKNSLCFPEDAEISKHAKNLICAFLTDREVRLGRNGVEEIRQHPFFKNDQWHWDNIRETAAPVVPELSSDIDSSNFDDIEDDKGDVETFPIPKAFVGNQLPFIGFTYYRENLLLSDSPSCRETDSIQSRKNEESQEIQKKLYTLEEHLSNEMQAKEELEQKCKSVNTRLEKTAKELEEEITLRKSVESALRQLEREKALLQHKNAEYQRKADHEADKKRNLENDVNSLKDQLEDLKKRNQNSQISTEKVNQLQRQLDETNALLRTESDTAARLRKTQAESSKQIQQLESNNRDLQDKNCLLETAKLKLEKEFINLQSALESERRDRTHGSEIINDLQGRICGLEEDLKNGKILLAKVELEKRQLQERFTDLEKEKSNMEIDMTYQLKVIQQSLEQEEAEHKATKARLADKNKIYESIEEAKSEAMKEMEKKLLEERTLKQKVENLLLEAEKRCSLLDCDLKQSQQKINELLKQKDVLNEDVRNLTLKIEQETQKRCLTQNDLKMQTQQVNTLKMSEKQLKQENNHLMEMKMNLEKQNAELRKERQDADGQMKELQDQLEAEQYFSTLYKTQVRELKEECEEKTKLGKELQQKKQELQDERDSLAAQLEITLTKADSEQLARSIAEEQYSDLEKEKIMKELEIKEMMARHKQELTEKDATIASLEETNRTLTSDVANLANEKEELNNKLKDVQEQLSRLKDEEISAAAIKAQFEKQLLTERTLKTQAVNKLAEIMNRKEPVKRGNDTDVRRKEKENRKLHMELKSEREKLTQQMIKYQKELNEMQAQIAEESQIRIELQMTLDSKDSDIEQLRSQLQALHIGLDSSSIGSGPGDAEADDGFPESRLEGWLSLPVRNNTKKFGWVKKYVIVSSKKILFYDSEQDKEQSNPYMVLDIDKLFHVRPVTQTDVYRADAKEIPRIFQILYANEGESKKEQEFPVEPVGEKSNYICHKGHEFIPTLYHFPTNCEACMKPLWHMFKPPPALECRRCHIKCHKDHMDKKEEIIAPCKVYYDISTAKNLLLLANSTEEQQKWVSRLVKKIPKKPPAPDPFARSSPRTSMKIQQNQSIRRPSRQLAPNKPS", "assay": "Invitrogen Z-Lyte FRET kinase assay, […] peptide substrate", "assay_type": "biochemical"}},
  "data": [
    {"substance": "RKI-1313", "values": [
      {"measurement": "IC50", "setting": "ROCK1", "value": 34, "unit": "µM"},
      {"measurement": "IC50", "setting": "ROCK2", "value": 8, "unit": "µM"}
    ]}
  ]
}
